Tests used:
PC-3 [1] = assay: Cytotoxicity against human PC3 cells after 72 hrs by CellTiter one aqueous solution assay; format: functional, cell-based; details: PC-3, 72 h
PC-3 [2] = assay: Cytotoxicity against human PC3 cells at 0.5 uM after 72 hrs in presence of 41 ug/ml eugenol by CellTiter one aqueous solution assay relative to control; format: functional
HeLa [3] = assay: Antiproliferative activity against human HeLa cells at 15 mM after 24 hrs by MTT assay relative to control; format: functional
HeLa [4] = assay: Antiproliferative activity against human HeLa cells after 24 hrs by MTT assay relative to control; format: functional
Mus musculus [5] = organism: Mus musculus; assay: Down-regulation of H-ras mRNA expression in mouse relative to control; format: functional
HeLa [6] = assay: Antiproliferative activity against human HeLa cells at 150 uM after 24 hrs by MTT assay relative to control; format: functional
Mus musculus [7] = organism: Mus musculus; assay: Down-regulation of c-Myc mRNA expression in mouse relative to control; format: functional
HeLa [8] = assay: Growth inhibition of human HeLa cells at 10 uM to 1 mM after 24 hrs by MTT assay relative to control; format: functional
PC-3 [9] = assay: Cytotoxicity against human PC3 cells at 41 ug/ml after 72 hrs in presence of 0.5 uM 2ME2 by CellTiter one aqueous solution assay relative to control; format: functional

## COc1cc2c(cc1O)CC[C@@H]1[C@@H]2CC[C@]2(C)[C@@H](O)CC[C@@H]12 [2-METHOXYESTRADIOL]
PC-3 [1]
  IC50: 82 mg/L
PC-3 [2]
  Activity: 50%

## Nc1ccn([C@@H]2O[C@H](CO)[C@@H](O)C2(F)F)c(=O)n1 [GEMCITABINE]
HeLa [3]
  Activity: 47%
HeLa [4]
  Activity: 73%

## C=CCc1ccc(O)c(OC)c1 [EUGENOL]
HeLa [4]
  Activity: 84%
PC-3 [1]
  IC50: 1 µM
Mus musculus [5]
  Activity: 28%
HeLa [6]
  Activity: 47%
Mus musculus [7]
  Activity: 40%
HeLa [8]
  growth inhibition (GI): 50%
PC-3 [9]
  Activity: 50%
